Measured values: US12448383B2, “Compounds and methods for treatment of viral infections” (priority 2022, dated 2025)

What was measured:
[1] = test system: Caco-2 cells (clone C2BBe1); experiment: CACO-2 permeability; assay type: in vitro ADME; design: unit not given here; settings: for DM Caco2 A to B: apical to basolateral, donor pH 6.5, receiver pH 7.4; for DM Caco2 B to A: basolateral to apical
Protocol: Pre-plated Caco-2 cells (clone C2BBel) were obtained from Sigma-Aldrich, Inc. (Atlanta, GA). Cell monolayers were grown to confluence on collagen-coated, microporous, polycarbonate membranes in 24-well transwell plates for 21 days. The permeability assay buffer in donor wells was Hanks' balanced salt solution (HBSS) containing 10 mM HEPES and 15 mM glucose at a pH of 6.5 containing 200 μM BNPP. The receiver wells used HBSS buffer containing 10 mM HEPES and 15 mM glucose at a pH of 7.4 and supplemented with 1°% BSA. After an initial equilibration with transport buffer, TEER values were read to test membrane integrity. The experiment was started by the addition of buffers containing test compounds, 200 μl and 1000 μl in the apical and basolateral chamber, respectively. At 0- and 2-hour post dose, 10 μL was sampled from donor compartment and was immediately diluted in 190 μL of 20% methanol. At 1 and 2 hours post dose, 100 μl of solution was taken from the receiver compartments and was immediately diluted in 100 μl of 20% methanol. Removed buffer was replaced with fresh buffer and a correction was applied to all calculations for the removed material. Each compound was tested in 2 separate replicate wells for each condition. All samples were then extracted with 400 μl 100% acetonitrile with internal standard to precipitate protein. Cells were dosed on the apical or basolateral side to determine forward (A to B) and reverse (B to A) permeability. To test for non-specific binding and compound instability, the total amount of drug was quantitated at the end of the experiment and compared to the material present in the original dosing solution as a percent recovery. […] Samples were analyzed by LC-MS/MS.

[2] = test system: SARS Coronavirus 2 recombinant with NanoLuc (SARS-CoV2-NLuc) in A549-hACE2 cells; experiment: organism not typed; assay type: cell-based; settings: 48 h; read-out: SARS-CoV2 EC50
[3] = CC50 MT4 cytotoxicity (Cell-Titer Glo); assay type: cell-based; settings: human
Protocol: Cytotoxicity of the compounds was determined in uninfected cells using the cell viability reagent in a similar fashion as described before for other cell types (Cihlar et al., Antimicrob Agents Chemother. 2008, 52(2):655-65). HEp-2 (1.5×10^3 cells/well) and MT-4 (2×10^3 cells/well) cells were plated in 384-well plates and incubated with the appropriate medium containing 3-fold serially diluted compound ranging from 15 nM to 100,000 nM. Cells were cultured for 4-5 days at 37° C. Following the incubation, the cells were allowed to equilibrate to 25° C., and cell viability was determined by adding Cell-Titer Glo viability reagent. The mixture was incubated for 10 min, and the luminescence signal was quantified using an Envision plate reader. Untreated cell and cells treated at 2 μM puromycin (Sigma, St. Louis, MO) serve as 100% and 0% cell viability control, respectively. The percent of cell viability was calculated for each tested compound concentration relative to the 0% and 100% controls and the CCso value was determined by non-linear regression as a compound concentration reducing the cell viability by 50%.

[4] = GI S9 stability - no PMSF; assay type: in vitro ADME; design: GIS9-HUMAN-NoPMSF T1/2: unit: min; settings: human intestinal S9, PMSF-free; for half-life at 2 µM: pH 7.4, read-out: GIS9-HUMAN-NoPMSF T1/2
Protocol: Duplicate aliquots of test compound or positive control substrate (GS-7340) were added to S9 stock diluted with 100 mM phosphate buffered saline, pH 7.4, to obtain a protein concentration of 1.0 mg/mL. The S9 metabolic reactions were initiated by the addition of the substrates to the S9 reaction mixture to a final concentration of 2 μM. At 0, 10, 20, 30, 60 and 120 min, […] aliquots of the reaction mixture were transferred to plates containing […] of IS/Q solution. After quenching, the plates were centrifuged at 3000 g for 30 minutes, and 150 μL aliquots of each supernatant were diluted with 150 μL water. Aliquots ([…]) of the diluted supernatant were analyzed on a Thermo Q-Exactive mass spectrometer as described below. GI S9 Stability—No phenylmethylsulfonyl fluoride (PMSF): Similar to the procedure described above, test compounds were incubated at 2 μM with 1 mg/mL PMSF-free Intestinal S9 fractions. Samples are removed at 6 time points over the course of a 120 min experiment and the parent compound disappreance and reference compound A formation is determined by mass spectrometry.
Example K: Liquid Chromatography/Mass Spectroscopy Methods for S9 and Plasma Stability
Quantification of test compounds, Reference Compound A (S9 stability assay nucleoside metabolite), and controls was performed by analyte/internal standard peak area ratio (PAR) values measured on a Thermo Q-Exactive mass spectrometer coupled to a Dionex UltiMate 3000 HPLC with a Leap Technologies HTC PAL autosampler. The column used for analysis of test compounds and Reference Compound A was a Waters Acquity BEH C18 ([…] particle size, 2.1′50 mm). The column used for control (GS-7340) was a Thermo Hypersil GOLD ([…] particle size, 2.1′50 mm). Mobile phase A consisted of 0.1% (v/v) formic acid in water. Mobile phase B consisted of 0.1% (v/v) formic acid in acetonitrile. Elution of analytes was achieved by a series of linear gradients of acetonitrile in water containing 0.1°(v/v) formic acid. The mass spectrometer was calibrated on a weekly basis and mass tolerance of 5 ppm was used.

Plasma stability = assay type: in vitro ADME; design: unit not given here; settings: 37° C., 2 μM substrate
Protocol: At 0.05, 0.5, 1, 2, 3 and 4 hr, […] aliquots of the reaction mixture were transferred to plates containing […] of IS/Q quenching solution. After quenching, the plates were centrifuged at 3000 g for 30 minutes, and 150 μL supernatant was diluted with 150 μL water. Aliquots ([…]) of the diluted supernatant were analyzed on a Thermo Q-Exactive mass spectrometer as described below.
Mobile phase A consisted of 0.1% (v/v) formic acid in water. Mobile phase B consisted of 0.1% (v/v) formic acid in acetonitrile. Elution of analytes was achieved by a series of linear gradients of acetonitrile in water containing 0.1°(v/v) formic acid. The mass spectrometer was calibrated on a weekly basis and mass tolerance of 5 ppm was used.

[5] = test system: Respiratory syncytial virus recombinant with luciferase (RSV-Luc5) in Normal Human Bronchial Epithelial (NHBE) cells; experiment: microbe, parasite or virus in culture; assay type: cell-based; settings: 72 h, read-out: RSV NHBE EC50

| Structure (SMILES) | DM Caco2 A to B [1] | DM Caco2 B to A [1] | EC50 [2] [µM] | CC50 [3] [µM] | half-life at 2 µM [4] [s] | STA Human Plasma 37 (Plasma stability) | EC50 [5] [µM] | GIS9-HUMAN-NoPMSF T1/2 [4] |
| --- | --- | --- | --- | --- | --- | --- | --- | --- |
| CC(=O)OC[C@H]1O[C@@](C#N)(c2ccc3c(N)ncnn23)[C@H](OC(C)=O)[C@@H]1OC(C)=O [3rd Reference Ester Compound] | 5.07 | 8.91 |  |  |  |  |  |  |
| N#C[C@@]1(c2ccc3c(N)ncnn23)O[C@H](COC(=O)OC2CCC2)[C@@H](O)[C@H]1O [Compound 37, ((2R,3S,4R,5R)-5-(4-aminopyrrolo[2,1-f][1,2,4]triazin-7-yl)-5-cyano-3,4-dihydroxytetrahydrofuran-2-yl)methyl cyclobutyl carbonate] | 0.5 | 7.54 | 3.15 | > 50 | 35.3 | 53 | 4.75 |  |
| CC1(OC(=O)OC[C@H]2O[C@@](C#N)(c3ccc4c(N)ncnn34)[C@H](O)[C@@H]2O)CCCCCC1 [Compound 55, ((2R,3S,4R,5R)-5-(4-aminopyrrolo[2,1-f][1,2,4]triazin-7-yl)-5-cyano-3,4-dihydroxytetrahydrofuran-2-yl)methyl (1-methylcycloheptyl) carbonate] | 0.38 | 1.89 | 2.9 | > 50 | 35.8 | 75.665 | 1.34 |  |
| CC1(OC(=O)OC[C@H]2O[C@@](C#N)(c3ccc4c(N)ncnn34)[C@H](O)[C@@H]2O)CCCCCCC1 [Compound 57, ((2R,3S,4R,5R)-5-(4-aminopyrrolo[2,1-f][1,2,4]triazin-7-yl)-5-cyano-3,4-dihydroxytetrahydrofuran-2-yl)methyl (1-methylcyclooctyl) carbonate] |  |  | 2.29 | > 50 |  | 317.5 | 2.45 |  |
| C=CCOC(=O)OC[C@H]1O[C@@](C#N)(c2ccc3c(N)ncnn23)[C@H](O)[C@@H]1O [Compound 64, Ally (((2R,3S,4R,5R)-5-(4-aminopyrrolo[2,1-f][1,2,4]triazin-7-yl)-5-cyano-3,4-dihydroxytetrahydrofuran-2-yl)methyl) carbonate] | 0.39 | 4.6 | 4.21 | > 50 | 59.6 | 3 | 2.66 |  |
| CC(C)C(C)(C)OC(=O)OC[C@H]1O[C@@](C#N)(c2ccc3c(N)ncnn23)[C@H](O)[C@@H]1O [Compound 68, ((2R,3S,4R,5R)-5-(4-aminopyrrolo[2,1-f][1,2,4]triazin-7-yl)-5-cyano-3,4-dihydroxytetrahydrofuran-2-yl)methyl (2,3-dimethylbutan-2-yl) carbonate] | 0.98 | 7.09 | 3.13 | > 50 | 2760 | 266.43 | 1.3 |  |
| CC1=CCC(OC(=O)OC[C@H]2O[C@@](C#N)(c3ccc4c(N)ncnn34)[C@H](O)[C@@H]2O)(C(C)C)CC1 (stereo partly drawn) [Compound 74, ((2R,3S,4R,5R)-5-(4-aminopyrrolo[2,1-f][1,2,4]triazin-7-yl)-5-cyano-3,4-dihydroxytetrahydrofuran-2-yl)methyl (1-isopropyl-4-methylcyclohex-3-en-1-yl) carbonate] | 3.25 | 9.88 | 2.4 | > 50 | 1820 | 205.11 | 0.956 |  |
| CC(C)(OC(=O)OC[C@H]1O[C@@](C#N)(c2ccc3c(N)ncnn23)[C@H](O)[C@@H]1O)c1ccccn1 [Compound 98, [(2R,3S,4R,5R)-5-(4-aminopyrrolo[2,1-f][1,2,4]triazin-7-yl)-5-cyano-3,4-dihydroxy-tetrahydrofuran-2-yl]methyl [1-methyl-1-(2-pyridyl)ethyl] carbonate] | 0.02 | 5.65 |  |  |  | 884.09 | 9 | 789 |
| CC(C)(OC(=O)OC[C@H]1O[C@@](C#N)(c2ccc3c(N)ncnn23)[C@H](O)[C@@H]1O)c1cccnc1 [Compound 99, [(2R,3S,4R,5R)-5-(4-aminopyrrolo[2,1-f][1,2,4]triazin-7-yl)-5-cyano-3,4-dihydroxy-tetrahydrofuran-2-yl]methyl [1-methyl-1-(3-pyridyl)ethyl] carbonate] | 0.11 | 2.47 |  |  | 5800 | 173.49 | 3.15 |  |
| COC(=O)OC[C@H]1O[C@@](C#N)(c2ccc3c(N)ncnn23)[C@@H]2OC(=O)O[C@@H]21 [Compound 127, ((3aR4R,6R,6aR)-6-(4-aminopyrrolo[2,1-f][1,2,4]triazin-7-yl)-6-cyano-2-oxotetrahydrofuro[3,4-d][1,3]dioxol-4-yl)methyl methyl carbonate] |  |  | 13.7 | > 50 | 57.4 | 12.071 | 5.06 |  |
| C=CCCC(=O)O[C@H]1[C@@H](OC(=O)CCC=C)[C@](C#N)(c2ccc3c(N)ncnn23)O[C@@H]1COC(=O)OC(C)C [Compound 134, (2R,3R,4R,5R)-2-(4-aminopyrrolo[2,1-f][1,2,4]triazin-7-yl)-2-cyano-5-(((isopropoxycarbonyl)oxy)methyl)tetrahydrofuran-3,4-diyl bis(pent-4-enoate)] |  |  | 5.13 | > 50 |  | 65.405 | 1.4 |  |
| N#C[C@@]1(c2ccc3c(N)ncnn23)O[C@H](CO)[C@@H](O)[C@H]1O [Reference Compound A, (2R,3R,4S,5R)-2-(4-aminopyrrolo[2,1-f][1,2,4]triazin-7-yl)-3,4-dihydroxy-5-(hydroxymethyl)tetrahydrofuran-2-carbonitrile, reference compound] | 0.12 | 1.52 |  |  |  |  |  |  |
